Patent EP0238178B1, “Novel derivatives of erythromycylamine” (ELI LILLY AND COMPANY, priority 1986, dated 1987)
Values after ≈ are worked out from the molar mass of the structure shown. Read-outs that look alike come from different tables or passages of the source.

Assays:
[1] = system: Staphylococcus aureus X1.1; assay: MIC, standard agar-dilution assay; type: cell-based; conditions: read-out: MIC
[2] = system: Staphylococcus aureus V41; assay: MIC, standard agar-dilution assay; type: cell-based; conditions: Staphylococcus aureus V41, Penicillin-resistant strain, inducibly-resistant to erythromycin; read-out: MIC
Source text: (§1) In addition to excellent in vitro activity against erythromycin-sensitive bacteria, several members of this new series have shown in vitro activity against erythromycin-resistant strains. These include strains which are inducibly-resistant to erythromycin (S.. aureus V41 and X400 and S. epidermidis EPI1) and even strains which are constitutively-resistant (S. epidermidis 270).

[3] = system: Staphylococcus aureus X400; assay: MIC, standard agar-dilution assay; type: cell-based; conditions: Staphylococcus aureus X400, Methicillin-resistant strain, inducibly-resistant to erythromycin; read-out: MIC
Source text: as §1

[4] = system: Staphylococcus epidermidis EPI1; assay: MIC, standard agar-dilution assay; type: cell-based
Source text: as §1

[5] = system: Staphylococcus aureus S13E; assay: MIC, standard agar-dilution assay; type: cell-based
[6] = system: Staphylococcus epidermidis 222; assay: MIC, standard agar-dilution assay; type: cell-based
[7] = system: Streptococcus pyogenes C203; assay: MIC, standard agar-dilution assay; type: cell-based; conditions: read-out: MIC
[8] = system: Streptococcus pneumoniae Park I; assay: MIC, standard agar-dilution assay; type: cell-based; conditions: read-out: MIC
[9] = system: Streptococcus sp. group D X66; assay: MIC, standard agar-dilution assay; type: cell-based
[10] = system: Streptococcus sp. group D 2041; assay: MIC, standard agar-dilution assay; type: cell-based; conditions: read-out: MIC
[11] = system: Haemophilus influenzae C.L.; assay: MIC, standard agar-dilution assay; type: cell-based; conditions: Ampicillin-sensitive strain, read-out: MIC
[12] = system: Haemophilus influenzae 76; assay: MIC, standard agar-dilution assay; type: cell-based; conditions: Haemophilus influenzae 76, Ampicillin-resistant strain; read-out: MIC
Escherichia coli EC14 = assay: MIC, standard agar-dilution assay; type: cell-based; conditions: read-out: MIC
[13] = system: Klebsiella pneumoniae X68; assay: MIC, standard agar-dilution assay; type: cell-based; conditions: read-out: MIC
Staphylococcus aureus = assay: Experimental bacterial infection in mice, ED50; type: in vivo; conditions: Staphylococcus aureus, two doses, dose protecting 50% of animals
Method: (§2) The new derivatives of this invention have also shown in vivo antimicrobial activity against experimental bacterial infections. When two doses of test compound were administered to mice in experimental infections, the activity observed was measured as an EDso value [effective dose in mg/kg to protect 50% of the test animals: see Warren Wick, et al., J. Bacteriol. 81, 233-235 (1961)].

Streptococcus pneumoniae = assay: Experimental bacterial infection in mice, ED50; type: in vivo; conditions: Streptococcus pneumoniae, po, two doses, dose protecting 50% of animals, read-out: Oral ED50
Method: as §2

Streptococcus pyogenes = assay: Experimental bacterial infection in mice, ED50; type: in vivo; conditions: Streptococcus pyogenes, po, two doses, dose protecting 50% of animals, read-out: Oral ED50
Method: as §2

[14] = Streptococcus sp. group D X66, read-out: MIC

Compound	MIC [1]	MIC [2]	MIC [3]	MIC [4]	MIC [5]	MIC [6]	MIC [7]	MIC [8]	MIC ([9]; Streptococcus)	MIC [10]	MIC [11]	MIC [12]	MIC (Escherichia coli EC14)	MIC [13]	ED50 (Staphylococcus aureus; po, read-out: Oral ED50)	ED50 (Streptococcus pneumoniae)	ED50 (Streptococcus pyogenes)	MIC ([6]; read-out: MIC)	MIC [9, 14]	ED50 (Staphylococcus aureus; sc, subcutaneous, read-out: Subcutaneous ED50)
CCCN1CO[C@@H]2[C@@H](C)[C@@H]1[C@H](C)C[C@@](C)(O)[C@H](O[C@@H]1O[C@H](C)C[C@H](N(C)C)[C@H]1O)[C@@H](C)[C@H](O[C@H]1C[C@@](C)(OC)[C@@H](O)[C@H](C)O1)[C@@H](C)C(=O)O[C@H](CC)[C@@]2(C)O [Compound 59]	0.25 µg/mL (≈ 0.317 µM)	8 µg/mL (≈ 10.1 µM)	8 µg/mL (≈ 10.1 µM)	> 128 µg/mL	0.125 µg/mL (≈ 0.158 µM)	0.125 µg/mL (≈ 0.158 µM)	< 0.008 µg/mL	< 0.008 µg/mL	0.125 µg/mL (≈ 0.158 µM)	1 µg/mL (≈ 1.27 µM)	1 µg/mL (≈ 1.27 µM)	2 µg/mL (≈ 2.53 µM)	32 µg/mL (≈ 40.6 µM)	128 µg/mL (≈ 162 µM)	7.2 mg/kg	5 mg/kg	4.8 mg/kg	–	–	–
CC[C@H]1OC(=O)[C@H](C)[C@@H](O[C@H]2C[C@@](C)(OC)[C@@H](O)[C@H](C)O2)[C@H](C)[C@@H](O[C@@H]2O[C@H](C)C[C@H](N(C)C)[C@H]2O)[C@](C)(O)C[C@@H](C)[C@H]2[C@H](C)[C@@H](OCN2C2CCCC2)[C@]1(C)O [Compound 60]	1 µg/mL (≈ 1.23 µM)	> 128 µg/mL	> 128 µg/mL	> 128 µg/mL	2 µg/mL (≈ 2.45 µM)	–	0.125 µg/mL (≈ 0.153 µM)	0.06 µg/mL (≈ 0.0736 µM)	–	8 µg/mL (≈ 9.81 µM)	4 µg/mL (≈ 4.91 µM)	4 µg/mL (≈ 4.91 µM)	64 µg/mL (≈ 78.5 µM)	64 µg/mL (≈ 78.5 µM)	> 50 mg/kg	9 mg/kg	10.2 mg/kg	1 µg/mL (≈ 1.23 µM)	0.5 µg/mL (≈ 0.613 µM)	5 mg/kg
CC[C@H]1OC(=O)[C@H](C)[C@@H](O[C@H]2C[C@@](C)(OC)[C@@H](O)[C@H](C)O2)[C@H](C)[C@@H](O[C@@H]2O[C@H](C)C[C@H](N(C)C)[C@H]2O)[C@](C)(O)C[C@@H](C)[C@H]2[C@H](C)[C@@H](OCN2Cc2ccccc2)[C@]1(C)O [Compound 62, 9-Deoxo-9-[(benzyl)amino]-9,11-(N.O)-cyclic Methylene Adduct of Erythromycin]	1 µg/mL (≈ 1.19 µM)	64 µg/mL (≈ 76.5 µM)	128 µg/mL (≈ 153 µM)	64 µg/mL (≈ 76.5 µM)	1 µg/mL (≈ 1.19 µM)	–	0.125 µg/mL (≈ 0.149 µM)	0.06 µg/mL (≈ 0.0717 µM)	–	4 µg/mL (≈ 4.78 µM)	4 µg/mL (≈ 4.78 µM)	4 µg/mL (≈ 4.78 µM)	> 128 µg/mL	> 128 µg/mL	> 50 mg/kg	15.2 mg/kg	15.6 mg/kg	0.5 µg/mL (≈ 0.597 µM)	0.5 µg/mL (≈ 0.597 µM)	–
CC[C@H]1OC(=O)[C@H](C)[C@@H](O[C@H]2C[C@@](C)(OC)[C@@H](O)[C@H](C)O2)[C@H](C)[C@@H](O[C@@H]2O[C@H](C)C[C@H](N(C)C)[C@H]2O)[C@](C)(O)C[C@@H](C)[C@H](N(C)C)[C@H](C)[C@@H](O)[C@]1(C)O [Compound 69, 9-Deoxo-9-(dimethylamino)erythromycin]	4 µg/mL (≈ 5.24 µM)	64 µg/mL (≈ 83.9 µM)	64 µg/mL (≈ 83.9 µM)	> 128 µg/mL	2 µg/mL (≈ 2.62 µM)	–	0.25 µg/mL (≈ 0.328 µM)	–	–	4 µg/mL (≈ 5.24 µM)	2 µg/mL (≈ 2.62 µM)	8 µg/mL (≈ 10.5 µM)	128 µg/mL (≈ 168 µM)	> 128 µg/mL	> 43.8 mg/kg	43.5 mg/kg	21.9 mg/kg	2 µg/mL (≈ 2.62 µM)	0.5 µg/mL (≈ 0.655 µM)	–
CC[C@H]1OC(=O)[C@H](C)[C@@H](O[C@H]2C[C@@](C)(OC)[C@@H](O)[C@H](C)O2)[C@H](C)[C@@H](O[C@@H]2O[C@H](C)C[C@H](N(C)C)[C@H]2O)[C@](C)(O)C[C@@H](C)[C@H](N(C)C(C)C)[C@H](C)[C@@H](O)[C@]1(C)O [Compound 70, 9-Deoxo-9-[(N-methyl-N-isopropyl)amino]erythromycin]	8 µg/mL (≈ 10.1 µM)	> 128 µg/mL	> 128 µg/mL	> 128 µg/mL	8 µg/mL (≈ 10.1 µM)	–	0.5 µg/mL (≈ 0.632 µM)	0.5 µg/mL (≈ 0.632 µM)	–	32 µg/mL (≈ 40.5 µM)	32 µg/mL (≈ 40.5 µM)	32 µg/mL (≈ 40.5 µM)	> 128 µg/mL	> 128 µg/mL	–	–	–	8 µg/mL (≈ 10.1 µM)	2 µg/mL (≈ 2.53 µM)	–
CC[C@H]1OC(=O)[C@H](C)[C@@H](O[C@H]2C[C@@](C)(OC)[C@@H](O)[C@H](C)O2)[C@H](C)[C@@H](O[C@@H]2O[C@H](C)C[C@H](N(C)C)[C@H]2O)[C@](C)(O)C[C@@H](C)[C@H](N(C)C2CCCCC2)[C@H](C)[C@@H](O)[C@]1(C)O [Compound 71, 9-Deoxo-9-[(N-cyclohexyl-N-methyl)amino]erythromycin]	16 µg/mL (≈ 19.3 µM)	> 128 µg/mL	> 128 µg/mL	> 128 µg/mL	16 µg/mL (≈ 19.3 µM)	–	1 µg/mL (≈ 1.2 µM)	0.125 µg/mL (≈ 0.15 µM)	–	128 µg/mL (≈ 154 µM)	32 µg/mL (≈ 38.5 µM)	32 µg/mL (≈ 38.5 µM)	> 128 µg/mL	> 128 µg/mL	> 50 mg/kg	> 50 mg/kg	> 50 mg/kg	8 µg/mL (≈ 9.63 µM)	8 µg/mL (≈ 9.63 µM)	–
